Among the data in patent publication US9346795B2, “Substituted sulfonamides useful as antiapoptotic Bcl inhibitors” (Bristol-Myers Squibb Company, priority 2011, dated 2016) are IC50 values, retold here.

pIC50: −log10 of the molar value.

Assay [1] has as its target Bcl-2 (Homo sapiens (Human), UniProt P10415). As to the kind of experiment: Bcl-2/Bim Fluorescence Polarization Assay (FPA). Format: binding.
For assay [2], the target named is Bcl-xL (Homo sapiens (Human), UniProt Q07817). As to the kind of experiment: Bcl-xL/Bim Fluorescence Resonance Energy Transfer Assay (FRET). Format: binding. In outline: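 Biotin-Bcl-xL was incubated with Bim and compound at eleven concentrations for 60 min at room temperature. Streptavidin-terbium detection was then added for 30 min in the dark, and FRET was read. IC50 values were obtained by non-linear regression.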
Chain of Bcl-xL (Q07817 whole entry): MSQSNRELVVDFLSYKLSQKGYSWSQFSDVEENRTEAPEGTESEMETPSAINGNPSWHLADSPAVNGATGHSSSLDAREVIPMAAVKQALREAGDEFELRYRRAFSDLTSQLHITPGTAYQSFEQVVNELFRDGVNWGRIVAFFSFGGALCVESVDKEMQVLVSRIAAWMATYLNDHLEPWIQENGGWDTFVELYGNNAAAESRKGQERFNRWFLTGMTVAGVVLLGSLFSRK

Chain of Bcl-2 (P10415 whole entry): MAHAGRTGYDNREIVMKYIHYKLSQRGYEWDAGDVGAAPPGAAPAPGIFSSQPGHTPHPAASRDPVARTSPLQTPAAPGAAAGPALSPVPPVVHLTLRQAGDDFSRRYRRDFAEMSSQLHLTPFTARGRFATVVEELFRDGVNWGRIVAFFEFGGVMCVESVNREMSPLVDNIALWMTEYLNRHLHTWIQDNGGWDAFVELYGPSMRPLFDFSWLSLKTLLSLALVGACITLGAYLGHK

A word on the pIC50: it is the negative decadic logarithm of the IC50, by convention in mol/L. A higher pIC50 goes with a small IC50. For `CCCCN(C(=O)c1nn(-c2ccc(C(=O)NS(=O)(=O)c3ccc4ccccc4c3)cc2C(=O)N2CCc3ccccc3C2)c(C)c1Cl)c1ccc2c(c1)OCCO2` [Example 149, N-butyl-4-chloro-N-(2,3-dihydrobenzo[b][1,4]dioxin-6-yl)-5-methyl-1-(4-(naphthalen-2-ylsulfonylcarbamoyl)-2-(1,2,3,4-tetrahydroisoquinoline-2-carbonyl)phenyl)-1H-pyrazole-3-carboxamide], the pIC50 in assay [1] was 7.15; in assay [2], 7.52.
Regarding `CCCCN(C(=O)c1nn(-c2ccc(C(=O)NS(=O)(=O)c3ccc4ccccc4c3)cc2C(=O)N2CCc3ccccc3C2)c(C)c1Cl)c1cccc(-c2cccc(Cl)c2)c1` [Example 152, N-butyl-4-chloro-N-(3′-chlorobiphenyl-3-yl)-5-methyl-1-(4-(naphthalen-2-ylsulfonylcarbamoyl)-2-(1,2,3,4-tetrahydroisoquinoline-2-carbonyl)phenyl)-1H-pyrazole-3-carboxamide], the results for the pIC50 in assay [1] and in assay [2] were 7.30 and 6.80, respectively.
In the same order, the values of `CCCCN(C(=O)c1nn(-c2ccc(C(=O)NS(=O)(=O)c3ccc4ccccc4c3)cc2C(=O)N2CCc3ccccc3C2)c(C)c1Cl)c1ccc(C(=O)OC)cc1` [Example 154, methyl 4-(N-butyl-4-chloro-5-methyl-1-(4-(naphthalen-2-ylsulfonylcarbamoyl)-2-(1,2,3,4-tetrahydroisoquinoline-2-carbonyl)phenyl)-1H-pyrazole-3-carboxamido)benzoate] are 7.05 and 7.10.
As for `CCCCN(CCC(=O)NCCN1CCN(C)CC1)C(=O)c1nn(-c2ccc(C(=O)NS(=O)(=O)c3ccc4ccccc4c3)cc2C(=O)N2CCc3ccccc3C2)c(C)c1Cl` [Example 158, N-Butyl-4-chloro-5-methyl-N-(3-(2-(4-methylpiperazin-1-yl)ethylamino)-3-oxopropyl)-1-(4-(naphthalen-2-ylsulfonylcarbamoyl)-2-(1,2,3,4-tetrahydroisoquinoline-2-carbonyl)phenyl)-1H-pyrazole-3-carboxamide], the pIC50 in assay [1] is 7.15; in assay [2], 7.70.
Take `CCCCN(CCCC)C(=O)c1cc(C)n(-c2ccc(C(=O)NS(=O)(=O)c3ccc4ccccc4c3)cc2C(=O)N2CCc3ccccc3C2)n1` [Example 164, N,N-Dibutyl-5-methyl-1-(4-(naphthalen-2-ylsulfonylcarbamoyl)-2-(1,2,3,4-tetrahydroisoquinoline-2-carbonyl)phenyl)-1H-pyrazole-3-carboxamide]: the figures for the pIC50 in assay [1] and in assay [2] were 6.64 and 7.52, respectively.
In the same order, the values of `CCCCN(Cc1ccc(Cl)c(Cl)c1)C(=O)c1nn(-c2ccc(C(=O)NS(=O)(=O)c3ccc4ccc(I)cc4c3)cc2C(=O)N2CCc3ccccc3C2)c(C)c1Cl` [Example 179, N-Butyl-4-chloro-N-(3,4-dichlorobenzyl)-1-(4-(7-iodonaphthalen-2-ylsulfonylcarbamoyl)-2-(1,2,3,4-tetrahydroisoquinoline-2-carbonyl)phenyl)-5-methyl-1H-pyrazole-3-carboxamide] are 7.70 and 7.10.
Consider `CCCCN(Cc1ccc(Cl)c(Cl)c1)C(=O)c1nn(-c2ccc(C(=O)NS(=O)(=O)c3ccc4cccc(Cl)c4c3)cc2C(=O)N2Cc3ccccc3C[C@H]2CO)c(C)c1Cl` [Example 181, N-Butyl-4-chloro-1-(4-(8-chloronaphthalen-2-ylsulfonylcarbamoyl)-2-((S)-3-(hydroxymethyl)-1,2,3,4-tetrahydroisoquinoline-2-carbonyl)phenyl)-N-(3,4-dichlorobenzyl)-5-methyl-1H-pyrazole-3-carboxamide], for which the pIC50 in assay [1] is 8.07; in assay [2] it was 7.30.
In the case of `CCCCN(CCCC)C(=O)c1nn(-c2ccc(C(=O)NS(=O)(=O)c3ccc4c(c3)CCN4Cc3ccc(Cl)c(Cl)c3)cc2C(=O)N2Cc3ccccc3C[C@H]2CO)c(C)c1Cl` [Example 189, N,N-Dibutyl-4-chloro-1-(4-(1-(3,4-dichlorobenzyl)indolin-5-ylsulfonylcarbamoyl)-2-((S)-3-(hydroxymethyl)-1,2,3,4-tetrahydroisoquinoline-2-carbonyl)phenyl)-5-methyl-1H-pyrazole-3-carboxamide], the figures for the pIC50 in assay [1] and in assay [2] were 8.00 and 7.40, respectively.
In the same order, the values of `CCCCN(CCCC)c1nn(-c2ccc(C(=O)NS(=O)(=O)c3ccc4ccccc4c3)cc2C(=O)N2CCc3ccccc3C2)c(C)c1Cl` [Example 191, 4-(4-Chloro-3-(dibutylamino)-5-methyl-1H-pyrazol-1-yl)-N-(naphthalen-2-ylsulfonyl)-3-(1,2,3,4-tetrahydroisoquinoline-2-carbonyl)benzamide] are 6.59 and 6.16.
In the same order, the values of `CCCN(CCC)c1nn(-c2ccc(C(=O)NS(=O)(=O)c3ccc4ccccc4c3)cc2C(=O)N2Cc3ccccc3C[C@H]2CO)c(C)c1Cl` [Example 192, 4-(4-Chloro-3-(dipropylamino)-5-methyl-1H-pyrazol-1-yl)-3-((S)-3-(hydroxymethyl)-1,2,3,4-tetrahydroisoquinoline-2-carbonyl)-N-(naphthalen-2-ylsulfonyl)benzamide] are 7.22 and 7.52.
As to `CCCN(CCC)c1nn(-c2ccc(C(=O)NS(=O)(=O)c3ccc4cccc(Cl)c4c3)cc2C(=O)N2Cc3ccccc3C[C@H]2CO)c(C(F)(F)F)c1Cl` [Example 195, 4-(4-Chloro-3-(dipropylamino)-5-(trifluoromethyl)-1H-pyrazol-1-yl)-N-(8-chloronaphthalen-2-ylsulfonyl)-3-((S)-3-(hydroxymethyl)-1,2,3,4-tetrahydroisoquinoline-2-carbonyl)benzamide], the pIC50 was 7.52 in assay [1] and 6.54 in assay [2].
Turning to `CCCN(CCC)c1nn(-c2ccc(C(=O)NS(=O)(=O)c3ccc4cccc(Cl)c4c3)cc2C(=O)N2CCc3ccccc3C2)c(C(F)(F)F)c1Cl` [Example 196, 4-(4-Chloro-3-(dipropylamino)-5-(trifluoromethyl)-1H-pyrazol-1-yl)-N-(8-chloronaphthalen-2-ylsulfonyl)-3-(1,2,3,4-tetrahydroisoquinoline-2-carbonyl)benzamide], the pIC50 in assay [1] is 7.40; in assay [2], 6.29.
In the same order, the values of `CCCCN(CCCC)C(=O)c1nn(-c2ccc(C(=O)NS(=O)(=O)c3ccc4c(ccn4Cc4ccc(Cl)c(Cl)c4)c3)cc2C(=O)N2Cc3ccccc3C[C@H]2CO)c(C)c1Cl` [Example 198, N,N-dibutyl-4-chloro-1-(4-(1-(3,4-dichlorobenzyl)-1H-indol-5-ylsulfonylcarbamoyl)-2-((S)-3-(hydroxymethyl)-1,2,3,4-tetrahydroisoquinoline-2-carbonyl)phenyl)-5-methyl-1H-pyrazole-3-carboxamide] are 8.05 and 7.30.
In the same order, the values of `CCCCN(CCC(=O)NCCN1CCN(C)CC1)C(=O)c1nn(-c2ccc(C(=O)NS(=O)(=O)c3ccc4c(c3)CCN4Cc3ccc(Cl)c(Cl)c3)cc2C(=O)N2CCc3ccccc3C2)c(C)c1Cl` [Example 200, N-butyl-4-chloro-1-(4-(1-(3,4-dichlorobenzyl)indolin-5-ylsulfonylcarbamoyl)-2-(1,2,3,4-tetrahydroisoquinoline-2-carbonyl)phenyl)-5-methyl-N-(3-(2-(4-methylpiperazin-1-yl)ethylamino)-3-oxopropyl)-1H-pyrazole-3-carboxamide] are 6.00 and 6.89.
In the case of `CCCCN(CCCC)C(=O)c1nn(-c2ccc(C(=O)NS(=O)(=O)c3ccc4cccc(Cl)c4c3)cc2C(=O)N2Cc3ccccc3C[C@H]2CN)c(C)c1Cl` [Example 203, 1-(2-((S)-3-(aminomethyl)-1,2,3,4-tetrahydroisoquinoline-2-carbonyl)-4-(8-chloronaphthalen-2-ylsulfonylcarbamoyl)phenyl)-N,N-dibutyl-4-chloro-5-methyl-1H-pyrazole-3-carboxamide], the pIC50 in assay [1] and in assay [2] was 8.00 throughout.
As for `CCCCN(CCCC)C(=O)c1nn(-c2ccc(C(=O)NS(=O)(=O)c3cc(Br)c4c(c3)CCN4CC)cc2C(=O)N2Cc3ccccc3C[C@H]2CO)c(C)c1Cl` [Example 205, 1-(4-(7-bromo-1-ethylindolin-5-ylsulfonylcarbamoyl)-2-((S)-3-(hydroxymethyl)-1,2,3,4-tetrahydroisoquinoline-2-carbonyl)phenyl)-N,N-dibutyl-4-chloro-5-methyl-1H-pyrazole-3-carboxamide], the figures for the pIC50 in assay [1] and in assay [2] were 8.04 and 8.05, respectively.
Turning to `CCCN(CCC)c1nn(-c2ccc(C(=O)NS(=O)(=O)c3ccc4c(Cl)ccc(Br)c4c3)cc2C(=O)N2Cc3ccccc3C[C@H]2CO)c(C)c1Cl` [Example 207, N-(8-bromo-5-chloronaphthalen-2-ylsulfonyl)-4-(4-chloro-3-(dipropylamino)-5-methyl-1H-pyrazol-1-yl)-3-((S)-3-(hydroxymethyl)-1,2,3,4-tetrahydroisoquinoline-2-carbonyl)benzamide], the figures for the negative-log IC50 (pIC50) in assay [1] and in assay [2] were 8.11 and 7.40, respectively.
In the same order, the values of `CCCCN(CCCC)C(=O)c1nn(-c2ccc(C(=O)NS(=O)(=O)c3cc(Br)c4c(ccn4CC)c3)cc2C(=O)N2Cc3ccccc3C[C@H]2CO)c(C)c1Cl` [Example 208, 1-(4-(7-bromo-1-ethyl-1H-indol-5-ylsulfonylcarbamoyl)-2-((S)-3-(hydroxymethyl)-1,2,3,4-tetrahydroisoquinoline-2-carbonyl)phenyl)-N,N-dibutyl-4-chloro-5-methyl-1H-pyrazole-3-carboxamide] are 8.44 and 8.10.
In the same order, the values of `CCCCN(Cc1ccc(-c2ccc(CC(=O)O)cc2)cc1)C(=O)c1nn(-c2ccc(C(=O)NS(=O)(=O)c3ccc4c(c3)CCN4Cc3ccc(Cl)c(Cl)c3)cc2C(=O)N2CCc3ccccc3C2)c(C)c1Cl` [Example 213, 2-(4′-((N-butyl-4-chloro-1-(4-(1-(3,4-dichlorobenzyl)indolin-5-ylsulfonylcarbamoyl)-2-(1,2,3,4-tetrahydroisoquinoline-2-carbonyl)phenyl)-5-methyl-1H-pyrazole-3-carboxamido)methyl)biphenyl-4-yl)acetic acid] are 8.00 and 7.10.
